Measurements taken from ChEMBL document CHEMBL5291721, “A preclinical secondary pharmacology resource illuminates target-adverse drug reaction associations of marketed drugs” (Nat Commun, 2023).

Key:
[1] = target: T1, Alpha-1A adrenergic receptor (Homo sapiens, UniProt P35348)
T1 sequence (P35348 whole entry): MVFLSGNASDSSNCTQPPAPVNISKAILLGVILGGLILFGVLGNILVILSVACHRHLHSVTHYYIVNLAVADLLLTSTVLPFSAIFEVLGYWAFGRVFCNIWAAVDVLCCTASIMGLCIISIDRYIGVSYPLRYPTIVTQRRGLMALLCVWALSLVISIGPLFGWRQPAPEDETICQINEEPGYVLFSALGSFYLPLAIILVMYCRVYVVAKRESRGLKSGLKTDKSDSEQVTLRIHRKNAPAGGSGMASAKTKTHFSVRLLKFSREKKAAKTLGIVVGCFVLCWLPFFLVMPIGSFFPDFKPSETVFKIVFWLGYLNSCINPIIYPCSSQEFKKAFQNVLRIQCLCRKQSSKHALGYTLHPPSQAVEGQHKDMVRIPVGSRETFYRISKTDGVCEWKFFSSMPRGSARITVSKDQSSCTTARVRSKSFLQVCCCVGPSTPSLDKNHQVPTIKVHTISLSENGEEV

[2] = target: T2, Alpha-2B adrenergic receptor (Homo sapiens, UniProt P18089)
T2 sequence (P18089 whole entry): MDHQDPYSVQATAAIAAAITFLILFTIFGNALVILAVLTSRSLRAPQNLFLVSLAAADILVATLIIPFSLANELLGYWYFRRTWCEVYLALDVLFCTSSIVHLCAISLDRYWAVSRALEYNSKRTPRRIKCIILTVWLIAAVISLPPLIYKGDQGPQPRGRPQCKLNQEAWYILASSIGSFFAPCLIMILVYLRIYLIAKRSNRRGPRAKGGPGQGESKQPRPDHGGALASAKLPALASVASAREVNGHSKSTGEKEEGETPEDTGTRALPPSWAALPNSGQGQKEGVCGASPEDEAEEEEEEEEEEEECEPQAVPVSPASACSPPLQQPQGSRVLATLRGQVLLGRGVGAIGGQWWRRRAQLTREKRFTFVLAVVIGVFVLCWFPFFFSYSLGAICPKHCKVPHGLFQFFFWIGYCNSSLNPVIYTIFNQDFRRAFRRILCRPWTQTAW

[3] = target: Beta-2 adrenergic receptor (Homo sapiens, UniProt P07550); type: functional, cell-based
[4] = target: T3, Muscarinic acetylcholine receptor M1 (Homo sapiens, UniProt P11229); type: functional
T3 sequence (P11229 whole entry): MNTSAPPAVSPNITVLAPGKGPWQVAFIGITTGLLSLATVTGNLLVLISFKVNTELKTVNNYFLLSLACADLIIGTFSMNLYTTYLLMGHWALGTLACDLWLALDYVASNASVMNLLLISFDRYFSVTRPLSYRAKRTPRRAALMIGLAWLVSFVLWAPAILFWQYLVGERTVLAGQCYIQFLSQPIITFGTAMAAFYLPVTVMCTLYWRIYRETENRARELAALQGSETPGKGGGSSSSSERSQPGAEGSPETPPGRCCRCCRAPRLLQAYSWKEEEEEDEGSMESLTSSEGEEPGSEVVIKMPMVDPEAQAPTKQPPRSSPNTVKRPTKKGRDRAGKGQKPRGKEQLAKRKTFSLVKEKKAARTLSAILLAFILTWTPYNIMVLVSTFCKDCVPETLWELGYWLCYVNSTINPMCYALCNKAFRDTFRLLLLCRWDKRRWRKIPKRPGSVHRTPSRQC

Cannabinoid receptor 1 [5] = target: T4, Cannabinoid receptor 1 (Homo sapiens, UniProt P21554); type: functional, cell-based
Cannabinoid receptor 1 [6] = target: T4, Cannabinoid receptor 1; type: functional, cell-based; remark: listed apart in the source
Cannabinoid receptor 1 [7] = target: T4, Cannabinoid receptor 1
Estrogen receptor = target: T5, Estrogen receptor (Homo sapiens, UniProt P03372)
T5 sequence (P03372 whole entry): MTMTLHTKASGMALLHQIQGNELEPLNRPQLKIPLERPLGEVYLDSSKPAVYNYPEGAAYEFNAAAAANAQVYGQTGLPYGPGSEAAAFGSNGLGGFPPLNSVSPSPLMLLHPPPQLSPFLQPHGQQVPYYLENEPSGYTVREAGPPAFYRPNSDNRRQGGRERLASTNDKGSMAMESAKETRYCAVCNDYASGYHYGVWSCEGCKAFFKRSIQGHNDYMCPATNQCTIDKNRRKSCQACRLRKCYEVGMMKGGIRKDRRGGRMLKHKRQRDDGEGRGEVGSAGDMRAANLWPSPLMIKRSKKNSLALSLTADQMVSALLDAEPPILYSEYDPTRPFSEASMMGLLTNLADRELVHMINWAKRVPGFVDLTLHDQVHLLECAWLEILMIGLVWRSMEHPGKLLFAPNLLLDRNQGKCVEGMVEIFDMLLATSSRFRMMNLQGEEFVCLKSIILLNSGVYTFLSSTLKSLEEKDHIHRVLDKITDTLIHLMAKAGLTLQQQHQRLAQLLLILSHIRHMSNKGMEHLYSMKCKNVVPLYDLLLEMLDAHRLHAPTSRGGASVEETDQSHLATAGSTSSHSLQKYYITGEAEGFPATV

Histamine H1 receptor = Histamine H1 receptor (Homo sapiens, UniProt P35367)
[8] = target: T6, 5-hydroxytryptamine receptor 1A (Homo sapiens, UniProt P08908); type: functional, cell-based
T6 sequence (P08908 whole entry): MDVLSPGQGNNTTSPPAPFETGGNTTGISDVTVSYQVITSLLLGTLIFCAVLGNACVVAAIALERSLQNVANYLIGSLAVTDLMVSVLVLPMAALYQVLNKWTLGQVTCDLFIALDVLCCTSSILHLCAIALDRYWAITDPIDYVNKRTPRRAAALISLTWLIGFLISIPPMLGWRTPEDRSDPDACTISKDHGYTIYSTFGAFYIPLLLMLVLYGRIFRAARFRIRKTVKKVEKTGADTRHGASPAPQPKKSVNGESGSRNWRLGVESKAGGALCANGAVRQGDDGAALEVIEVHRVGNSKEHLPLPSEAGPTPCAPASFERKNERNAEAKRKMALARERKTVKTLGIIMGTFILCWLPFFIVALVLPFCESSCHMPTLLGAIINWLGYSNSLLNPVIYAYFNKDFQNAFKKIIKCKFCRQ

[9] = target: 5-hydroxytryptamine receptor 2A (Homo sapiens, UniProt P28223); type: functional, cell-based
Mu-type opioid receptor = Mu-type opioid receptor (Homo sapiens, UniProt P35372); assay: biochemical; type: functional
[10] = target: T1, Alpha-1A adrenergic receptor; type: functional, cell-based
Also: assay procedure not described here.

Chain of Beta-2 adrenergic receptor (P07550 whole entry): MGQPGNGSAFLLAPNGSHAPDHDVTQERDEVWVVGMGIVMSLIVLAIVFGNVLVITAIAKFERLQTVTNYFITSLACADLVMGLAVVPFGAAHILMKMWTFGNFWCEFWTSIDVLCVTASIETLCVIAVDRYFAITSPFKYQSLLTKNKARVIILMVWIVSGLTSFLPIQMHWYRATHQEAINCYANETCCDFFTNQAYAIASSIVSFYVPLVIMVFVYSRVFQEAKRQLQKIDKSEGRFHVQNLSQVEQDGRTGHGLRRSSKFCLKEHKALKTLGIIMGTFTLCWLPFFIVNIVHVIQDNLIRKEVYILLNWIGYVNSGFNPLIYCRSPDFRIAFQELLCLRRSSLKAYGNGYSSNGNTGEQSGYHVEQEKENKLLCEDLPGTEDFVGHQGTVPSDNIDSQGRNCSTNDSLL
Chain of Histamine H1 receptor (P35367 whole entry): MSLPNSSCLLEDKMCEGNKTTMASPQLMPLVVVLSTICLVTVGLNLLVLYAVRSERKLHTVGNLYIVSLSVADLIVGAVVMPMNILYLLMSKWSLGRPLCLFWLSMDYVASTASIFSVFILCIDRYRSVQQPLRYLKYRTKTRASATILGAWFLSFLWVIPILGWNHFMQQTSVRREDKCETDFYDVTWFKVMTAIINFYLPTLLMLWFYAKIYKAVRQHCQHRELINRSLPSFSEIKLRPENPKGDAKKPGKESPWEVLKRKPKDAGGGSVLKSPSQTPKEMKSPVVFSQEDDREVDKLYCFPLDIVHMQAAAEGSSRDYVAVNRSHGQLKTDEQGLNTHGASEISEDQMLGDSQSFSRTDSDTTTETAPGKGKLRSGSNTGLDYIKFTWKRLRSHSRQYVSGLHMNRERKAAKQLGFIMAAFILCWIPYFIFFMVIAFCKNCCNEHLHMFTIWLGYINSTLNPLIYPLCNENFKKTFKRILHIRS
Chain of Mu-type opioid receptor (P35372 whole entry): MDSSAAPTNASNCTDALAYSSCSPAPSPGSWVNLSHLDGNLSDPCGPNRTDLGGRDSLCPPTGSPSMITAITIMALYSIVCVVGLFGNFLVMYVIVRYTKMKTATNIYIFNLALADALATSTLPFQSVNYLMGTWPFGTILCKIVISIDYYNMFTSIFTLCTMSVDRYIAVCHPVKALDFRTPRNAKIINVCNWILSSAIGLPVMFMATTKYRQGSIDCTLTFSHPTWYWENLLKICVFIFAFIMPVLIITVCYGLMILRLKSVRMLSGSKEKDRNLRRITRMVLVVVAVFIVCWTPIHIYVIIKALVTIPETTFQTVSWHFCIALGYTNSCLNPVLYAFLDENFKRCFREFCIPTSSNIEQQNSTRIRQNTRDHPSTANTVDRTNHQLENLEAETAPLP
Chain of 5-hydroxytryptamine receptor 2A (P28223 whole entry): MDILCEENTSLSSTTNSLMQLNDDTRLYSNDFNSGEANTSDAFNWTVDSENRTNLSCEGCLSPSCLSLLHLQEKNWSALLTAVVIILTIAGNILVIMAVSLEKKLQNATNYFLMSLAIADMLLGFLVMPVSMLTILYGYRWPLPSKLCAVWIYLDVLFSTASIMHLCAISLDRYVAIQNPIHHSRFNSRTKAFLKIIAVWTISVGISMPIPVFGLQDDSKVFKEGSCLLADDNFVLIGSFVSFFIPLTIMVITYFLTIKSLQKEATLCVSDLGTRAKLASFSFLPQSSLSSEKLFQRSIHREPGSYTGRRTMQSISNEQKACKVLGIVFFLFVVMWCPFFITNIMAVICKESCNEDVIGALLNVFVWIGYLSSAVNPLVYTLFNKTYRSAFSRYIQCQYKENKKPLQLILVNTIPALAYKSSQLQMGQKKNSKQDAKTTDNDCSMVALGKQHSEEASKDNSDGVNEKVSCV
T4 sequence (P21554 whole entry): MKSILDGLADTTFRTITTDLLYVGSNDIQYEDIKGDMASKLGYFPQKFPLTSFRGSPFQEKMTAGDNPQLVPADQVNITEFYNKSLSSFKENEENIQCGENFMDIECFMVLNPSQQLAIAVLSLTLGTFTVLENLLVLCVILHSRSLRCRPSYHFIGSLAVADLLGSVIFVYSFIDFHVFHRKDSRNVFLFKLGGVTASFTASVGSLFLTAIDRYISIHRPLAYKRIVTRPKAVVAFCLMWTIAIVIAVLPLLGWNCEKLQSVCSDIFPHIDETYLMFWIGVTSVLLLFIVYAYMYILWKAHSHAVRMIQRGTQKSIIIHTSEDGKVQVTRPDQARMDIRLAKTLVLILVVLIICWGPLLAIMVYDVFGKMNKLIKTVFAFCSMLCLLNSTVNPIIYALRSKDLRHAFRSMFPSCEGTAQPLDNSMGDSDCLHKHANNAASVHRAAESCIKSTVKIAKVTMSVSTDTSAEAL

Row | AC50 [1] | AC50 [2] | AC50 [3] | AC50 [4] | AC50 (Cannabinoid receptor 1 [5]) | AC50 (Cannabinoid receptor 1 [6]) | AC50 (Cannabinoid receptor 1 [7]) | AC50 (Estrogen receptor) | AC50 (Histamine H1 receptor) | AC50 [8] | AC50 [9] | AC50 (Mu-type opioid receptor) | AC50 [10] | SMILES
1 | > 10 µM | > 10 µM | > 30 µM | > 10 µM | > 30 µM | > 30 µM | > 10 µM | > 10 µM | > 10 µM | > 10 µM | > 30 µM | > 30 µM | > 30 µM | CC(=O)c1ccc(S(=O)(=O)NC(=O)NC2CCCCC2)cc1 [ACETOHEXAMIDE]
2 |  | > 30 µM | > 30 µM | > 30 µM | > 30 µM | > 30 µM |  | > 30 µM | > 30 µM | > 30 µM | > 30 µM | > 30 µM | > 30 µM | CO/N=C(\C(=O)N[C@@H]1C(=O)N2C(C(=O)O)=C(CSc3nc(=O)c(=O)[nH]n3C)CS[C@H]12)c1csc(N)n1 [CEFTRIAXONE]
3 | > 30 µM | > 30 µM | > 30 µM | > 30 µM | > 30 µM | > 30 µM |  | > 30 µM | > 30 µM | > 30 µM | > 30 µM | > 30 µM | > 30 µM | CC(C)N(CCCCOCC(=O)O)c1cnc(-c2ccccc2)c(-c2ccccc2)n1
4 | > 30 µM |  | > 30 µM | > 30 µM | > 30 µM | > 30 µM |  |  | 28 µM | > 30 µM | 11 µM | > 30 µM |  | C=CCN1CCc2nc(N)sc2CC1 [TALIPEXOLE]
